Measured values: patent US20240381872A1, “SUBSTITUTED 2,3-DIHYDRO[1,3]THIAZOLO[4,5-B]PYRIDINES, SALTS THEREOF AND THEIR USE AS HERBICIDALLY ACTIVE SUBSTANCES” (BAYER AKTIENGESELLSCHAFT, priority 2021, published 2024)

Legend:
Type in all cases: in vivo
[1] = tested on: Polygonum convolvulus (POLCO); test: Herbicidal pre-emergence action, section C (Table C7); conditions: Fallopia convolvulus, pre-emergence, 504 h; application rate 320 g/ha; visual grading after ca. 3 weeks; read-out: pre-emergence activity against POLCO in %
Excerpt: (§1) Seeds of mono- and dicotyledonous weed plants and crop plants were sown, in plastic or organic planting pots, in sandy loam and covered with soil. The compounds according to the invention, formulated in the form of wettable powders (WP) or as emulsifiable concentrates (EC), were applied to the surface of the covering soil as aqueous suspension or emulsion, with the addition of 0.5% of an additive, at an application rate of 600 l of water/ha (converted). Following treatment, the pots were placed in a greenhouse and kept under optimum growth conditions for the test plants. The visual grading of the damage to the test plants was carried out after ca. 3 weeks in comparison to untreated controls (herbicidal effect in percent (%): 100% effect=plants have died off, 0% effect=as control plants).

Setaria viridis (SETVI) [2] = test: Herbicidal pre-emergence action, section C (Table C8); conditions: application rate 320 g/ha, visual grading after ca. 3 weeks
Excerpt: as §1

[3] = tested on: Triticum aestivum (TRZAS); test: Pre-emergence effects on crop plants, section D (Table D2); conditions: visual grading after ca. 3 weeks
Method in brief: (§2)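 Pre-emergence soil-surface spray, 320 g/ha or below, 600 l water/ha + 0.5% additive; WP/EC formulations; sandy loam; greenhouse; visual % damage vs untreated at ~3 wk.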

Brassica napus (BRSNW) [4] = test: Pre-emergence effects on crop plants, section D (Table D5); conditions: application rate 80 g/ha; visual grading after ca. 3 weeks
Excerpt: (§3) Seeds of mono- and dicotyledonous weed plants and crop plants were sown, in plastic or organic planting pots, in sandy loam and covered with soil. The compounds according to the invention, formulated in the form of wettable powders (WP) or as emulsifiable concentrates (EC), were applied to the surface of the covering soil as aqueous suspension or emulsion, with the addition of 0.5% of an additive, at an application rate of 600 l of water/ha (converted).
(§4) Following treatment, the pots were placed in a greenhouse and kept under optimum growth conditions for the test plants. The visual grading of the damage to the test plants was carried out after ca. 3 weeks in comparison to untreated controls (herbicidal effect in percent (%): 100% effect=plants have died off, 0% effect=as control plants).
(§5) Tables D1 to D5 below show the effects of various compounds of the general formula (I) according to Table 1 on various crop plants and an application rate corresponding to 320 g/ha or below obtained by the experimental procedure mentioned above in Biological Examples, Section C.

[5] = tested on: Alopecurus myosuroides (ALOMY); test: Herbicidal pre-emergence action, section C (Table C2); conditions: Alopecurus myosuroides, pre-emergence, 504 h; application rate 320 g/ha; visual grading after ca. 3 weeks vs untreated controls; read-out: pre-emergence activity against ALOMY in %
Excerpt: as §1

Zea mays (ZEAMX) [6] = test: Pre-emergence effects on crop plants, section D (Table D1); conditions: visual grading after ca. 3 weeks
Method in brief: as §2

Lolium rigidum (LOLRI) [7] = test: Herbicidal pre-emergence action, section C (Table C5); conditions: Lolium rigidum, pre-emergence, 504 h; application rate 320 g/ha; visual grading after ca. 3 weeks; read-out: pre-emergence activity against LOLRI in %
Excerpt: as §1

Brassica napus (BRSNW) [8] = test: Post-emergence effects on crop plants, section F (Table F5); conditions: application rate 80 g/ha
Excerpt: (§6) Seeds of mono- and dicotyledonous weed plants and crop plants were sown, in plastic or organic planting pots, in sandy loam, covered with soil and grown in a greenhouse under controlled growth conditions. 2 to 3 weeks after sowing, the test plants were sprayed in the single-leaf stage. The compounds according to the invention, formulated in form of wettable powders (WP) or as emulsifiable concentrates (EC), were sprayed onto the green plant parts as aqueous suspension or emulsion, with the addition of 0.5% of an additive, at an application rate of 600 l of water/ha (converted). The test plants were placed in the greenhouse for ca. 3 weeks under optimum growth conditions, and then the effect of the preparations was assessed visually in comparison with untreated controls (herbicidal effect in percent (%): 100% effect=plants have died off, 0% effect=as control plants). Tables F1 to F4 below show the effects of selected compounds of the general formula (I) according to Table 1 on various crop plants and an application rate corresponding to 320 g/ha or below obtained by the experimental procedure mentioned above.

[9] = tested on: Triticum aestivum (TRZAS); test: Post-emergence effects on crop plants, section F (Table F2); conditions: application rate 320 g/ha
Method in brief: (§7)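 Percent damage was rated by eye roughly 3 weeks after treatment against untreated plants, where 0% = as control and 100% = died off. Spraying used WP or EC formulations plus 0.5% additive at 600 l water/ha, with rates of 320 g/ha or less. Plants were at the single-leaf stage, sown 2-3 weeks earlier in sandy loam under greenhouse conditions.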

[10] = tested on: Alopecurus myosuroides (ALOMY); test: Herbicidal post-emergence action, section E (Table E2); conditions: Alopecurus myosuroides, post-emergence, 504 h; application rate 320 g/ha; assessed visually after ca. 3 weeks; read-out: post-emergence activity against ALOMY in %
Excerpt: as §6, with “plants).” for “plants). Tables F1 to F4 below show the effects of selected compounds of the general formula (I) according to Table 1 on various crop plants and an application rate corresponding to 320 g/ha or below obtained by the experimental procedure mentioned above.”

Zea mays (ZEAMX) [11] = test: Post-emergence effects on crop plants, section F (Table F1); conditions: application rate 320 g/ha
Method in brief: as §7

[12] = tested on: Echinochloa crus-galli (ECHCG); test: Herbicidal pre-emergence action, section C (Table C3); conditions: application rate 320 g/ha, visual grading after ca. 3 weeks vs untreated controls
Excerpt: as §1

Oryza sativa (ORYZA) [13] = test: Post-emergence effects on crop plants, section F (Table F3)
Excerpt: as §6

Veronica persica (VERPE) = test: Herbicidal post-emergence action, section E (Table E9); conditions: Veronica persica, 504 h, application rate 320 g/ha, visual assessment ca. 3 weeks after spraying, read-out: post-emergence activity against VERPE in %
Excerpt: as §6, with “plants).” for “plants). Tables F1 to F4 below show the effects of selected compounds of the general formula (I) according to Table 1 on various crop plants and an application rate corresponding to 320 g/ha or below obtained by the experimental procedure mentioned above.”

Oryza sativa (ORYZA) [14] = test: Pre-emergence effects on crop plants, section D (Table D3); conditions: visual grading after ca. 3 weeks
Excerpt: as §3, §4, §5

[15] = tested on: Polygonum convolvulus (POLCO); test: Herbicidal post-emergence action, section E (Table E7); conditions: Fallopia convolvulus, 504 h, application rate 320 g/ha, visual assessment ca. 3 weeks after spraying, read-out: post-emergence activity against POLCO in %
Excerpt: as §6, with “plants).” for “plants). Tables F1 to F4 below show the effects of selected compounds of the general formula (I) according to Table 1 on various crop plants and an application rate corresponding to 320 g/ha or below obtained by the experimental procedure mentioned above.”

Glycine max (GLXMA) [16] = test: Post-emergence effects on crop plants, section F (Table F4)
Method in brief: as §7

Glycine max (GLXMA) [17] = test: Pre-emergence effects on crop plants, section D (Table D4); conditions: application rate 320 g/ha; visual grading after ca. 3 weeks
Method in brief: as §2

Setaria viridis (SETVI) [18] = test: Herbicidal pre-emergence action, section A (Table A8); conditions: application rate 320 g/ha
Method in brief: (§8)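 Pre-emergence soil-surface application: WP or EC formulations in water plus 0.5% additive, sprayed at 600 l/ha onto soil covering seeds sown in sandy loam. Visual percent damage rated at about 3 weeks against untreated pots, 100% meaning plants died off and 0% meaning like controls.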

Lolium rigidum (LOLRI) [19] = test: Herbicidal pre-emergence action, section A (Table A5); conditions: application rate 1280 g/ha; visual grading after ca. 3 weeks vs untreated controls
Method in brief: as §8

[20] = tested on: Digitaria sanguinalis (DIGSA); test: Herbicidal pre-emergence action, section A (Table A12); conditions: application rate 1280 g/ha
Method in brief: as §8

[21] = tested on: Digitaria sanguinalis (DIGSA); test: Herbicidal pre-emergence action, section C (Table C12); conditions: application rate 320 g/ha; visual grading after ca. 3 weeks
Excerpt: as §1

Kochia scoparia (KCHSC) [22] = test: Herbicidal post-emergence action, section B (Table B4); conditions: application rate 1280 g/ha; visual rating about 3 weeks after treatment vs untreated controls
Method in brief: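 Potted weeds in sandy loam are treated post-emergence at the one-leaf stage, 2 to 3 weeks after sowing. The spray is an aqueous WP or EC preparation with 0.5% additive at 600 liters per hectare. Percent activity is assessed by eye after about 3 weeks versus untreated controls.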

Poa annua (POAAN) = test: Herbicidal pre-emergence action, section A (Table A7); conditions: application rate 320 g/ha; visual grading after ca. 3 weeks vs untreated controls
Method in brief: as §8

Stellaria media (STEME) = test: Herbicidal pre-emergence action, section A (Table A9); conditions: application rate 1280 g/ha
Method in brief: as §8

Kochia scoparia (KCHSC) [23] = test: Herbicidal pre-emergence action, section A (Table A4); conditions: application rate 1280 g/ha; visual grading after ca. 3 weeks vs untreated controls
Method in brief: as §8

[24] = tested on: Amaranthus retroflexus (AMARE); test: Herbicidal pre-emergence action, section A (Table A11); conditions: application rate 1280 g/ha
Method in brief: as §8

[25] = tested on: Amaranthus retroflexus (AMARE); test: Herbicidal pre-emergence action, section C (Table C11); conditions: application rate 80 g/ha; visual grading after ca. 3 weeks
Excerpt: as §1

Cc1cc2c(nc1-c1ccccc1F)N(C(=O)C1CC1)CS2 [Example I-018, cyclopropyl[5-(2-fluorophenyl)-6-methyl[1,3]thiazolo[4,5-b]pyridin-3(2H)-yl]methanone]
10%: pre-emergence activity against TRZAS in % (crop plant damage) ([3]; application rate 80 g/ha) | pre-emergence activity against BRSNW in % (crop plant damage) (Brassica napus (BRSNW) [4]) | crop plant damage (phytotoxicity) in % at 80 g/ha (Brassica napus (BRSNW) [8]; Brassica napus, 504 h, read-out: post-emergence activity against BRSNW in %) | percent crop plant damage (wheat, post-emergence) at 320 g/ha ([9]; Triticum aestivum, 504 h, read-out: post-emergence activity against TRZAS in %) | pre-emergence activity against ORYZA in % (crop plant damage) (Oryza sativa (ORYZA) [14]; application rate 80 g/ha) | pre-emergence activity against GLXMA in % (crop plant damage) (Glycine max (GLXMA) [17])
100%: pest or weed control at 320 g/ha (Setaria viridis (SETVI) [2]; Setaria viridis, pre-emergence, 504 h, read-out: pre-emergence activity against SETVI in %) | pest or weed control at 320 g/ha [5] | pest or weed control at 320 g/ha (Lolium rigidum (LOLRI) [7]) | pest or weed control at 320 g/ha ([12]; Echinochloa crus-galli, pre-emergence, 504 h, read-out: pre-emergence activity against ECHCG in %)
90%: pest or weed control at 320 g/ha [1] | pest or weed control at 320 g/ha [10] | pest or weed control at 320 g/ha (Veronica persica (VERPE))
0%: percent crop plant damage at 80 g/ha (Oryza sativa (ORYZA) [13]; Oryza sativa, 504 h, application rate 80 g/ha, read-out: post-emergence activity against ORYZA in %) | percent crop plant damage at 320 g/ha (Glycine max (GLXMA) [16]; Glycine max, 504 h, application rate 320 g/ha, read-out: post-emergence activity against GLXMA in %)
20%: pre-emergence activity against ZEAMX in % (crop plant damage) (Zea mays (ZEAMX) [6]; application rate 80 g/ha) | percent crop plant damage (phytotoxicity) on Zea mays, post-emergence at 320 g/ha (Zea mays (ZEAMX) [11]; Zea mays, 504 h, read-out: post-emergence activity against ZEAMX in %)
80%: pest or weed control at 320 g/ha [15]

COc1ccccc1-c1nc2c(cc1Br)SCN2B(N)N [Example I-087]
0%: post-emergence activity against BRSNW in % (Brassica napus (BRSNW) [8]; crop plant damage) | post-emergence activity against TRZAS in % ([9]; crop plant damage) | post-emergence activity against ZEAMX in % (Zea mays (ZEAMX) [11]; crop plant damage) | post-emergence activity against ORYZA in % (Oryza sativa (ORYZA) [13]; crop plant damage, application rate 320 g/ha) | post-emergence activity against GLXMA in % (Glycine max (GLXMA) [16]; crop plant damage, application rate 80 g/ha)
100%: pre-emergence activity against SETVI in % (Setaria viridis (SETVI) [18]) | pre-emergence activity against LOLRI in % (Lolium rigidum (LOLRI) [19]) | pre-emergence activity against DIGSA in % [20] | pre-emergence activity against SETVI in % (Setaria viridis (SETVI) [2]) | pre-emergence activity against POAAN in % (Poa annua (POAAN))
10%: pre-emergence activity against TRZAS in % (crop plant damage) ([3]; application rate 320 g/ha) | pre-emergence activity against ZEAMX in % (crop plant damage) (Zea mays (ZEAMX) [6]; application rate 320 g/ha)
90%: pre-emergence activity against DIGSA in % [21] | post-emergence activity against KCHSC in % (Kochia scoparia (KCHSC) [22]) | pre-emergence activity against STEME in % (Stellaria media (STEME)) | pre-emergence activity against KCHSC in % (Kochia scoparia (KCHSC) [23]) | pre-emergence activity against AMARE in % [24] | pre-emergence activity against ECHCG in % [12] | pre-emergence activity against AMARE in % [25]
20%: pre-emergence activity against BRSNW in % (crop plant damage) (Brassica napus (BRSNW) [4]) | pre-emergence activity against ORYZA in % (crop plant damage) (Oryza sativa (ORYZA) [14]; application rate 320 g/ha) | pre-emergence activity against GLXMA in % (crop plant damage) (Glycine max (GLXMA) [17])
